Results: patent publication US12084462B2, “Spiro bicyclic inhibitors of menin-MLL interaction” (Janssen Pharmaceutica NV, priority 2016, dated 2024)
“And” between values parts separate entries of the source, which are not always exact repeats. Equal entries are not always repeated. Where two headings read alike, the source gives them in different places.

Assays:
menin = molecular target: T1, menin (Homo sapiens, UniProt O00255, T541A); test: Menin/MLL fluorescence polarization (FP) assay; format: binding
T1 sequence (O00255 with tags, fused parts or gaps T541A): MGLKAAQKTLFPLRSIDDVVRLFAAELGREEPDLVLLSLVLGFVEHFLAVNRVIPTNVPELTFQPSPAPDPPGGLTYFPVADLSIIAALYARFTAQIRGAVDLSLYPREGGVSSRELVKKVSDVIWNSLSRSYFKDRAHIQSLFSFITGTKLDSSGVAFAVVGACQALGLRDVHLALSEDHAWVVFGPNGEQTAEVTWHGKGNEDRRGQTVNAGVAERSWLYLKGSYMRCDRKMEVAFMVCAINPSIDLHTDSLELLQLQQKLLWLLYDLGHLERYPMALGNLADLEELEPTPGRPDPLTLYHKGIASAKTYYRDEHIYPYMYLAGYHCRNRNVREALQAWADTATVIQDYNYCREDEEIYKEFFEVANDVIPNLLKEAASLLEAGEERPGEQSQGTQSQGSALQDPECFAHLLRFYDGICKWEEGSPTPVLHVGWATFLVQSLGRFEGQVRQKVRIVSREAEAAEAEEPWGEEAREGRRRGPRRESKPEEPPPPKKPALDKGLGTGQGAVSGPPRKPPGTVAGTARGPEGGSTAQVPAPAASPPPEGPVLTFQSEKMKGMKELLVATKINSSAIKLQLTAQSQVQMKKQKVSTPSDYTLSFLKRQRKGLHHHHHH
Procedure: 1) Menin/MLL Fluorescence Polarization Assay
To a non-surface binding, black 384-well microtiter plate was added 50 nL 160× test compound in DMSO and 4 μL 2× menin in assay buffer (40 mM Tris·HCl, pH 7.5, 50 mM NaCl, 1 mM DTT and 0.001% Tween 20). After incubation of test compound and menin for 10 min at ambient temperature, 4 μL 2×FITC-MBM1 peptide (FITC-β-alanine-SARWRFPARPGT-NH2 (SEQ ID NO: 2)) in assay buffer was added, the microtiter plate centrifuged at 1000 rpm for 1 min and the assay mixtures incubated for 15 min at ambient temperature. The relative amount of menin·FITC-MBM1 complex present in an assay mixture is determined by measuring the fluorescence polarization (FP) of the FITC label with a BMG Pherastar plate reader (ex. 485 nm/em. 520 nm) at ambient temperature. The final concentrations of reagents in the binding assay are 100 nM menin, 5 nM FITC-MBM1 peptide and 0.625% DMSO in assay buffer. Dose-response titrations of test compounds are conducted using an 11 point, three-fold serial dilution scheme, starting at 31 μM.
Compound potencies were determined by first calculating % inhibition at each compound concentration according to equation 1: % inhibition=((HC−LC)−(FP^compound−LC))/(HC−LC))*100 (Eqn 1)
Where LC and HC are the FP values of the assay in the presence or absence of a saturating concentration of a compound that competes with FITC-MBM1 for binding to menin, and FP^compound is the measured FP value in the presence of the test compound. HC and LC FP values represent an average of at least 16 replicates per plate. […] 2) Proliferation Assay

MV-4-11 = test: Proliferation assay (spheroid assay) MV-4-11; format: cell-based, human
Procedure: (§1) The anti-proliferative effect of menin/MLL protein/protein interaction inhibitor test compounds was assessed in human leukemia cell lines. The cell lines MV-4-11 and MOLM14 harbor MLL translocations and express the MLL fusion proteins MLL-AF4 and MLL-AF9, respectively, as well as the wildtype protein from the second allele. […] K562 and KG1 were used as a control cell lines containing two MLL wildtype alleles in order to exclude compounds that display general cytotoxic effects.
(§2) MV-4-11 and MOLM14 were cultured in RPMI-1640 (Sigma Aldrich) supplemented with 10% fetal bovine serum (HyClone), 2 mM L-glutamine (Sigma Aldrich) and 50 μg/ml gentamycin (Gibco). K562 were propagated in RPMI-1640 (Sigma Aldrich) supplemented with 20% fetal bovine serum (HyClone), 2 mM L-glutamine (Sigma Aldrich) and 50 μg/ml gentamycin (Gibco). KG1 were cultured in Iscove's MDM (Gibco) supplemented with 20% fetal bovine serum (HyClone), 2 mM L-glutamine (Sigma Aldrich) and 50 μg/ml gentamycin (Gibco).
(§3) In order to assess the anti-proliferative effects, 1,500 MV-4-11, 300 MOLM14, 750 K562 or 1,300 KG1 cells were seeded in 200 μl media per well in 96-well round bottom, ultra-low attachment plates (Costar, catalogue number 7007). Cell seeding numbers were chosen based on growth curves to ensure linear growth throughout the experiment. Test compounds were added at different concentrations and the DMSO content was normalized to 0.3%. Cells were incubated for 8 d at 37° C. and 5% CO2. Spheroid like growth was monitored in real-time by live-cell imaging (IncuCyteZOOM, Essenbio, 4× objective) acquiring one image every four hours for 8 d. Confluence (%) as a measure of spheroid size was determined using an integrated analysis tool.
(§4) In order to determine the cumulative effect of the test compounds over time, the area under the curve (AUC) in a plot of confluence against time was calculated. Confluence at the beginning of the experiment (t=0) was used as baseline for the AUC calculation.
(§5) Absolute IC50 values were calculated according to the following procedure: % Control=(AUC sample/AUC control)*100 AUC control=mean AUC of control values (cells without compound/DMSO as vehicle control)
(§6) A non-linear curve fit was applied using the least squares (ordinary) fit method to the plot of % control versus compound concentration. Based on this, the absolute IC50 value (half maximal inhibitory concentration of the test compound causing an anti-proliferative effect of 50% relative to the vehicle control) was calculated.

MOLM14 = test: Proliferation assay (spheroid assay) MOLM14; format: cell-based, human
Procedure: as §1, §2, §3, §4, §5, §6

K562 = test: Proliferation assay (spheroid assay) K562, control cell line; format: cell-based; settings: Homo sapiens
Procedure: as §1, §2, §3, §4, §5, §6

KG1 = test: Proliferation assay (spheroid assay) KG1, control cell line; format: cell-based; settings: Homo sapiens, KG-1; KG1 control cell line; averaged values; read-out: Spheroid assay KG1 (IC50 (μM))
Procedure: as §1, §2, §3, §4, §5, §6

[1] = averaged values over all measurements, read-out: Menin FP assay (IC50 (μM))
[2] = Homo sapiens, MV4-11, MV-4-11, averaged values, read-out: Spheroid assay MV-4-11 (IC50 (μM))
[3] = Homo sapiens, MOLM-14, MOLM14, averaged values, read-out: Spheroid assay MOLM14 (IC50 (μM))
[4] = K562 control cell line, averaged values, read-out: Spheroid assay K562 (IC50 (μM))

Structure (SMILES) | IC50 (menin; [1]) [µM] | IC50 (MV-4-11; [2]) [µM] | IC50 (MOLM14; [3]) [µM] | IC50 (K562; [4]) [µM] | IC50 (KG1) [µM] | IC50 (menin; 100 nM menin, 5 nM FITC-MBM1 peptide, individual measurements (not averaged), read-out: (1) Menin FP assay (IC50 (μM))) [µM] | IC50 (MV-4-11; MV-4-11 (MLL-AF4), 8 d, absolute IC50 from AUC of confluence, individual measurements (not averaged), read-out: (2) Spheroid assay MV-4-11 (IC50 (μM))) | IC50 (MOLM14; Homo sapiens, MOLM-14, 192 h, MOLM14 (MLL-AF9), 8 d, absolute IC50 from AUC of confluence, individual measurements (not averaged), read-out: (2) Spheroid assay MOLM14 (IC50 (μM))) [µM] | IC50 (MOLM14; MOLM14 (MLL-AF9), 8 d, absolute IC50 from AUC of confluence, individual measurements (not averaged), read-out: (2) Spheroid assay MOLM14 (IC50 (μM))) [µM] | IC50 (K562; 192 h, K562 (MLL wildtype control), 8 d, absolute IC50 from AUC of confluence, individual measurements (not averaged), read-out: (2) Spheroid assay K562 (IC50 (μM))) [µM]
FC(F)(F)Cc1cc2c(N3CCCC4(CCN(Cc5ccccc5)C4)C3)ncnc2s1 (racemic) [Compound 18] | 0.14 | 3.9 | 7.7 | > 15 | – | – | – | – | – | –
Fc1ccc(CN2CC[C@]3(CCN(c4ncnc5sc(CC(F)(F)F)cc45)C3)C2)cc1 (single isomer, unassigned) [Compound 291] | – | 0.66 | 1.2 | – | > 15 | – | – | – | – | –
CC(C)C(CC1CCN(C)CC1)N1CC2(CCN(c3ncnc4sc(CC(F)(F)F)cc34)C2)C1 (stereo not shown) [Compound 316] | – | 0.4 | 0.96 | – | > 3.7 | – | – | – | – | –
FC(F)(F)Cc1cc2c(N3CC[C@@]4(CCN(Cc5ccccc5)C4)C3)ncnc2s1 (single isomer, unassigned) [Compound 20a] | 0.076 | 0.96 | 5 | > 15 | – | – | – | – | – | –
CC(C)[C@@H](N1CC2(CCN(c3ncnc4sc(CC(F)(F)F)cc34)C2)C1)C1(F)CN(C)C1 [Compound 304a] | – | 0.44 | 1.3 | – | > 15 | – | – | – | – | –
FC(F)(F)Cc1cc2c(N3CCC4(CN(Cc5ccccc5)C4)C3)ncnc2s1 [Compound 1] | 0.056 | 3.7 | 4.6 | > 15 | – | – | – | – | – | –
O=C([C@@H]1CC2(CC2)CN1)N1CC2(CCN(c3ncnc4sc(CC(F)(F)F)cc34)C2)C1 [Compound 86] | 0.092 | 2.6 | 11.3 | > 15 | – | – | – | – | – | –
CC(C)CN1CC2(CCN(c3ncnc4sc(CC(F)(F)F)cc34)C2)C1 [Compound 13] | 0.042 | 0.73 | 4.2 | > 15 | – | – | – | – | – | –
FC(F)(F)Cc1cc2c(N3CCC[C@@]4(CCN(Cc5ccccc5)C4)C3)ncnc2s1 (single isomer, unassigned) [Compound 21b] | 0.13 | 4.2 | 4.6 | > 15 | – | – | – | – | – | –
FC(F)(F)Cc1cc2c(N3CCC4(CN(CC5CC6(CCC6)C5)C4)C3)ncnc2s1 [Compound 22] | 0.069 | 0.55 | 2 | > 15 | – | – | – | – | – | –
FC(F)(F)Cc1cc2c(N3CCC4(CN(Cc5cnccn5)C4)C3)ncnc2s1 [Compound 12] | 0.63 | > 15 | > 15 | > 15 | – | – | – | – | – | –
FC(F)(F)Cc1cc2c(N3CC4(CCN(Cc5ccccc5)C4)C3)ncnc2s1 [Compound 16] | – | – | – | – | – | 0.134 | 4.7 µM and > 15 µM | 9.3 | 8.7 | > 15
C[C@H]1CN[C@H](C(=O)N2CC3(C2)CN(c2ncnc4sc(CC(F)(F)F)cc24)C3)C1 [Compound 105] | – | 0.67 | 3.4 | > 15 | – | – | – | – | – | –
